Assay results: PMC7576278, “IKKε and TBK1 in diffuse large B‐cell lymphoma: A possible mechanism of action of an IKKε/TBK1 inhibitor to repress NF‐κB and IL‐10 signalling” (Journal of Cellular and Molecular Medicine, 2020)

Key:
IKKε = target: T1, IKKε (Homo sapiens, UniProt Q14164); assay: purified enzyme inhibition (pIC50; assay details not given); format: biochemical
T1 construct: gene IKBKE
T1 sequence (Q14164 1-716): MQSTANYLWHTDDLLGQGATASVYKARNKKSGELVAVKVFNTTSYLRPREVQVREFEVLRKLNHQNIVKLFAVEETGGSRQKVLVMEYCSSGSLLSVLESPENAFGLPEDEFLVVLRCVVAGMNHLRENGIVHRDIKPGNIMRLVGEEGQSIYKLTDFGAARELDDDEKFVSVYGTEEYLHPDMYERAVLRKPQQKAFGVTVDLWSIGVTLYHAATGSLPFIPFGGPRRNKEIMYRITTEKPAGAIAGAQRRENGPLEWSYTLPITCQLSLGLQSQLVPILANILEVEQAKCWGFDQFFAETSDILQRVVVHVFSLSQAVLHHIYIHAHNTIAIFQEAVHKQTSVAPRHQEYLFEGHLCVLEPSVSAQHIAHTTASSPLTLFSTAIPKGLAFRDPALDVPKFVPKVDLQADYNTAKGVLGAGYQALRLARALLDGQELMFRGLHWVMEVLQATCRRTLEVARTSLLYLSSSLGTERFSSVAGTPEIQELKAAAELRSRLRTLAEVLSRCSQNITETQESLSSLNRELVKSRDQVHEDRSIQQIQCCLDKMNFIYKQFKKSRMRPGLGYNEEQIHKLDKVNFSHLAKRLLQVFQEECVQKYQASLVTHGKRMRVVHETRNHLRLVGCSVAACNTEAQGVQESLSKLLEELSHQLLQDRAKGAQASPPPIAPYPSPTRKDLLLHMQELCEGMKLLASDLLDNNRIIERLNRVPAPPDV

TBK1 = target: T2, TBK1 (Homo sapiens, UniProt Q9UHD2); assay: as above; format: biochemical
T2 sequence (Q9UHD2 1-729): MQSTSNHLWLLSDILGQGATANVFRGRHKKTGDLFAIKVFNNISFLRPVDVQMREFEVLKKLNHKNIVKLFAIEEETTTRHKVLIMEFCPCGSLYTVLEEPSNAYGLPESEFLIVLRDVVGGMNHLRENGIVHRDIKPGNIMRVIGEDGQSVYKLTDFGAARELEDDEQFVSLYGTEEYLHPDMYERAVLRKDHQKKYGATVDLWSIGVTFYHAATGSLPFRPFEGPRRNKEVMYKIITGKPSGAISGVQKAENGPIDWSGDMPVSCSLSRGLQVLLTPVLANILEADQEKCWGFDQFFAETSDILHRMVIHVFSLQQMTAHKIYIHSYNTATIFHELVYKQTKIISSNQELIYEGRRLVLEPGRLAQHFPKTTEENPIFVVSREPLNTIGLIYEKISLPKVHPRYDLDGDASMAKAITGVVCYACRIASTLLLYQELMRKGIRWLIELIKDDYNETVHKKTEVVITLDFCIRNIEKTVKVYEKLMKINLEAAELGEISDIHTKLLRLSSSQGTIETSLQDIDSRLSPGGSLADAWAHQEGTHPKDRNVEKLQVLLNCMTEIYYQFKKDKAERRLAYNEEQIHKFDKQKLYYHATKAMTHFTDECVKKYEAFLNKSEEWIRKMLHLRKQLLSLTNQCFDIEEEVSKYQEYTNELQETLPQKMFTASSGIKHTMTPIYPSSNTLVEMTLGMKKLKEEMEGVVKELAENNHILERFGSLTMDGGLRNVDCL

N#Cc1cc(-c2ccnc(Nc3ccc(NC(=O)CN4CCOCC4)nc3)n2)cnc1N1CC[C@H](F)C1 [DMX3433]
IC50 (IKKε): 0.0158 µM | IC50 (TBK1): 0.0126 µM
